Source: PubChem BioAssay AID200 (DTP/NCI, 2004)
Where “and” joins values, the source holds several entries; their conditions need not be identical. Identical values can stand only once. Inconclusive results and toxic doses are left out.

Tested on: B6C3F1 mice, B16 melanoma ip, median survival T/C
Experiment: NCI In Vivo Anticancer Drug Screen. Data for tumor model B16 Melanoma (intraperitoneal) in B6C3F1 mice
Settings: endpoint: median survival time, schedule: Q01DX009 (ip), higher = longer survival
Experimental: The antitumor activity of compounds was measured in mice bearing transplantable tumors. Survival or tumor size were measured and the results are expressed as the measurement made in the treated group (T) divided by the measurement made in the vehicle treated control group (C). The tumor model used in this assay is B16 Melanoma (intraperitoneal) in B6C3F1 mice

[1] = dose: 12.5 mg/kg/injection, vehicle: saline with Tween-80
[2] = dose: 25.0 mg/kg/injection, vehicle: saline with Tween-80
[3] = dose: 50.0 mg/kg/injection, vehicle: saline with Tween-80
[4] = dose: 25.0 mg/kg/injection, vehicle: saline
[5] = dose: 50.0 mg/kg/injection, vehicle: saline
[6] = dose: 100.0 mg/kg/injection, vehicle: saline
[7] = dose: 12.5 mg/kg/injection, vehicle: saline
[8] = dose: 6.25 mg/kg/injection, vehicle: saline with Tween-80
[9] = dose: 1.5 mg/kg/injection, vehicle: saline with Tween-80
[10] = dose: 3.0 mg/kg/injection, vehicle: saline with Tween-80
[11] = dose: 6.0 mg/kg/injection, vehicle: saline with Tween-80
[12] = dose: 12.0 mg/kg/injection, vehicle: saline with Tween-80
[13] = dose: 100.0 mg/kg/injection, vehicle: saline with Tween-80
[14] = dose: 200.0 mg/kg/injection, vehicle: saline with Tween-80
[15] = dose: 400.0 mg/kg/injection, vehicle: saline with Tween-80
[16] = dose: 25.0 mg/kg/injection, vehicle: Klucel (hydroxypropylcellulose) (HPC)
[17] = dose: 50.0 mg/kg/injection, vehicle: Klucel (hydroxypropylcellulose) (HPC)
[18] = dose: 100.0 mg/kg/injection, vehicle: Klucel (hydroxypropylcellulose) (HPC)
[19] = dose: 200.0 mg/kg/injection, vehicle: Klucel (hydroxypropylcellulose) (HPC)

With CCCCCn1c(C)cc(/C=C\c2ccc3cc(C)ccc3[n+]2C)c1C the T/C (dose: 39.0 micrograms/kg/injection, vehicle: Klucel (hydroxypropylcellulose) (HPC)) was 93 % of control, the T/C (dose: 78.0 micrograms/kg/injection, vehicle: Klucel (hydroxypropylcellulose) (HPC)) was 95 % of control and the T/C (dose: 156.0 micrograms/kg/injection, vehicle: Klucel (hydroxypropylcellulose) (HPC)) was 100 % of control. For the same compound, the T/C (dose: 312.0 micrograms/kg/injection, vehicle: Klucel (hydroxypropylcellulose) (HPC)) was 100 % of control and the T/C (dose: 625.0 micrograms/kg/injection, vehicle: Klucel (hydroxypropylcellulose) (HPC)) was 96 % of control.
With COc1ccc2c(c1)n([O-])c1ccccc1[n+]2=O the T/C [1] was 103 % of control, the T/C (dose: 18.0 mg/kg/injection, vehicle: saline with Tween-80) was 121 % of control and the T/C [2] was 108 % of control. The T/C (dose: 30.0 mg/kg/injection, vehicle: saline with Tween-80) was 101 % of control and 103 % of control, the T/C [3] was 113 % of control and 114 % of control and the T/C (dose: 83.33 mg/kg/injection, vehicle: saline with Tween-80) was 108 % of control and 115 % of control.
For O=C(O)CSC(CC(=O)O)C(=O)O (stereo not given), the T/C [4] was 94 % of control, the T/C [5] was 89 % of control and the T/C [6] was 94 % of control.
In the case of CC(C)(C)C(=O)Oc1ccc(N=C(N)N)cc1, the T/C [7] is reported as 94 % of control, the T/C [4] is reported as 94 % of control and the T/C [5] is reported as 97 % of control. The T/C [6] was 92 % of control.
In the case of CCOC(=O)NC1=C(N2CC2)C(=O)C(NC(=O)OCC)=C(N2CC2)C1=O, the T/C (dose: 0.25 mg/kg/injection, vehicle: saline) is reported as 97 % of control, the T/C (dose: 0.5 mg/kg/injection, vehicle: saline) is reported as 92 % of control and the T/C (dose: 2.0 mg/kg/injection, vehicle: saline) is reported as 115 % of control.
With CCC(C)n1ncc2c(N(C)C)ncnc21 (stereo not given) the T/C (dose: 3.12 mg/kg/injection, vehicle: saline) was 98 % of control, the T/C (dose: 6.25 mg/kg/injection, vehicle: saline) was 95 % of control and the T/C [7] was 95 % of control.
For CC(Br)C(=O)c1ccc2cc(Br)c3ccccc3c2c1 (stereo not given), the T/C (dose: 3.12 mg/kg/injection, vehicle: saline with Tween-80) was 98 % of control, the T/C [8] was 100 % of control and the T/C [1] was 90 % of control.
With CC(C)N1C(=O)N(Cl)C2C1N(Cl)C(=O)N2Cl (stereo not given) the T/C [9] was 108 % of control, the T/C [10] was 104 % of control and the T/C [11] was 98 % of control. For the same compound, the T/C [12] was 94 % of control and the T/C (dose: 24.0 mg/kg/injection, vehicle: saline with Tween-80) was 108 % of control.
With CN=C(N)N/N=C(\c1ccccc1)c1ccc(Br)cc1 the T/C [9] was 103 % of control, the T/C [10] was 107 % of control and the T/C [11] was 97 % of control. For the same compound, the T/C [12] was 96 % of control.
For O=C(NCc1ccccc1)c1cccnc1, the T/C [13] was 94 % of control, the T/C [14] was 94 % of control and the T/C [15] was 93 % of control.
For C=C1COC(O)(C2OCOC(C3CC(=O)NC(=O)C3)C2O)C1C (stereo not given), the T/C (dose: 4.0 micrograms/kg/injection, vehicle: water) was 94 % of control, the T/C (dose: 8.0 micrograms/kg/injection, vehicle: water) was 111 % of control and 113 % of control and the T/C (dose: 16.0 micrograms/kg/injection, vehicle: water) was 109 % of control. The T/C (dose: 32.0 micrograms/kg/injection, vehicle: water) was 115 % of control.
For CC(=O)OCC12C3CC(=O)OC1C(OC(=O)C=C(C)C)C1C(C)=CC(=O)C(OC(C)=O)C1(C)C2C(=O)C(OC(C)=O)C3C (stereo not given), the T/C (dose: 0.5 mg/kg/injection, vehicle: distilled water + Tween-80) was 93 % of control, the T/C (dose: 1.0 mg/kg/injection, vehicle: distilled water + Tween-80) was 101 % of control and the T/C (dose: 2.0 mg/kg/injection, vehicle: distilled water + Tween-80) was 118 % of control. The T/C (dose: 4.0 mg/kg/injection, vehicle: distilled water + Tween-80) was 93 % of control and the T/C (dose: 8.0 mg/kg/injection, vehicle: distilled water + Tween-80) was 98 % of control.
CC(=O)OCC1(C)NC(=O)c2ccccc2O1 (stereo not given) was tested, and the T/C [1] was 88 % of control and 103 % of control, the T/C [2] was 114 % of control and 103 % of control and the T/C [3] was 95 % of control and 100 % of control. For the same compound, the T/C [13] was 92 % of control and 93 % of control, the T/C [14] was 90 % of control and the T/C [15] was 86 % of control.
In the case of O=C1SC(c2ccccc2)=S=C1c1ccccc1, the T/C [16] is reported as 92 % of control, the T/C [17] is reported as 97 % of control and the T/C [18] is reported as 98 % of control. For the same compound, the T/C [19] was 93 % of control.
For CC(C)OC(=O)c1ccc(C(C)C)cc1, the T/C (dose: 3.13 mg/kg/injection, vehicle: saline with Tween-80) was 94 % of control, the T/C [8] was 96 % of control and the T/C [1] was 96 % of control and 101 % of control. For the same compound, the T/C [3] was 90 % of control.
For CNC(=O)OCc1c(COC(=O)NC)c(-c2ccc(Cl)c(Cl)c2)n2c1Cc1ccccc1C2, the T/C (dose: 25.0 mg/kg/injection, vehicle: distilled water + Tween-80) was 165 % of control, the T/C (dose: 50.0 mg/kg/injection, vehicle: distilled water + Tween-80) was 194 % of control and 203 % of control and the T/C (dose: 100.0 mg/kg/injection, vehicle: distilled water + Tween-80) was 92 % of control.
With CC1(C)CC2(C)OC2C2(C1)N=NC(=Nc1ccccc1)O2 (stereo not given) the T/C [2] was 96 % of control, the T/C [3] was 100 % of control and the T/C [13] was 89 % of control.
For Clc1ncnc2c1ncn2C1CCCO1 (stereo not given), the T/C [4] was 93 % of control, the T/C [5] was 99 % of control and the T/C [6] was 88 % of control and 94 % of control.
With O=[n+]1c2ccccc2n([O-])c2cc(Cl)ccc21 the T/C [1] was 111 % of control, the T/C [2] was 109 % of control and the T/C [3] was 116 % of control. The T/C [13] was 124 % of control.
For COc1ccccc1Cc1c(OC)cc(OC)c(C(=O)CCc2ccccc2)c1O, the T/C (dose: 4.3 mg/kg/injection, vehicle: other) was 101 % of control, the T/C (dose: 6.4 mg/kg/injection, vehicle: other) was 92 % of control and the T/C (dose: 9.6 mg/kg/injection, vehicle: other) was 89 % of control. For the same compound, the T/C (dose: 14.0 mg/kg/injection, vehicle: other) was 94 % of control.
In the case of Oc1c(Cl)cc(C(c2cc(Cl)c(O)c(Cl)c2)C(c2cc(Cl)c(O)c(Cl)c2)c2cc(Cl)c(O)c(Cl)c2)cc1Cl, the T/C (dose: 12.5 mg/kg/injection, vehicle: Klucel (hydroxypropylcellulose) (HPC)) is reported as 88 % of control and 100 % of control, the T/C [16] is reported as 92 % of control and 99 % of control and the T/C [17] is reported as 93 % of control and 101 % of control. For the same compound, the T/C [18] was 93 % of control and 101 % of control and the T/C [19] was 104 % of control.
With COC1=CC(=O)c2c(O)cc(OC)cc2C1=O the T/C (dose: 1.25 mg/kg/injection, vehicle: saline with Tween-80) was 105 % of control, the T/C (dose: 2.5 mg/kg/injection, vehicle: saline with Tween-80) was 105 % of control and the T/C (dose: 5.0 mg/kg/injection, vehicle: saline with Tween-80) was 121 % of control. The T/C (dose: 10.0 mg/kg/injection, vehicle: saline with Tween-80) was 109 % of control.
With CCCCN(CCCC)CCNc1ccc(Cl)c2oc3cc(C)ccc3c(=O)c12 the T/C [5] was 94 % of control and the T/C [6] was 87 % of control.
In the case of Cc1c2cc[n+](CCO)cc2c(C)c2c1[nH]c1ccc(O)cc12, the T/C (dose: 0.31 mg/kg/injection, vehicle: saline) is reported as 113 % of control and the T/C (dose: 0.62 mg/kg/injection, vehicle: saline) is reported as 91 % of control.
With CCCCCCC/C=C/C(=O)OC1C(OC2C(OC(CCCCCCC)CC(=O)OC(CCCCCCC)CC(=O)O)OC(C)C(O)C2O)OC(C)C(O)C1O (stereo not given) the T/C (dose: 0.78 mg/kg/injection, vehicle: Klucel (hydroxypropylcellulose) (HPC)) was 103 % of control, the T/C (dose: 1.56 mg/kg/injection, vehicle: Klucel (hydroxypropylcellulose) (HPC)) was 87 % of control and the T/C (dose: 3.12 mg/kg/injection, vehicle: Klucel (hydroxypropylcellulose) (HPC)) was 94 % of control.
